Results published in patent US20220050096A1, “ANALYTE-SENSITIVE PROBES AND CONTACT LENS FOR DIAGNOSIS OF OCULAR PATHOLOGIES” (University Of Maryland, Baltimore, priority 2020, published 2022).

Assay: Chloride quenching (Stern-Volmer) of SPQ-C18 in contact lenses
Type: physicochemical
Experimental: Quenching by Chloride. […] The intensities (I) and lifetimes (6) are analyzed using the Stern-Volmer equation, where F0 and τ0 are the intensities and lifetimes in the absence of chloride, and K is the quenching constant and the inverse of the [Cl^-] needed for 50% quenching. For collisional quenching, the value of F0/F and τ0/τ are typically the same. In solution, in the absence of lenses, the value of K=kq τ0 can be used to calculate the biomolecular quenching constant kq and the quenching efficiency. In the lenses, the [Cl-] may not be the same as in the bulk solution, but kq in the lenses is estimated by assuming the same concentration of chloride around the SPQ moiety in the lenses and in bulk solutions. Chloride-sensitive lenses were prepared using SPQ-C18. The quinolinium moiety in SPQ-C18 can be used for chloride sensing in tears. Its unquenched lifetime near 18.5 ns (see Table 14 and Table 15, below) which results in significant changes up to chloride concentrations of 220 mM, which is well above the physiological range. BiofinityTM and […] lenses labeled with SPQ-C18 were both found to display significant quenching at physiological concentrations of chloride near 120 mM. The emission intensities of SPQ-C18 were quenched by about 50% at this chloride concentration (FIG. 31 and FIG. 32). The emission spectra are not changed by quenching so intensity-based sensing may be different in a realworld application. […] Chloride quenching was analyzed using the Stern-Volmer equation for intensities and lifetimes (equations 7 and 8). In this analysis, we used the average lifetimes (equation 2) that is more appropriate for quenching. […] In contrast quenching of SP-PL, both intensity and lifetime, continue to decrease as the chloride concentration is increased. At the molecular level, the most interesting term is the biomolecular quenching constant kq. This value can be understood by comparison with quenching of a fluorophore in solution without any steric barriers. […] This approach for SPQ-C18 in lenses is shown in both intensities and amplitude-weighted lifetimes (FIG. 35A and FIG. 35B). […] This behavior is different from SG-PL where the binding site can be saturated at high Na^+ concentrations. In contrast, quenching of OD-MQB, both intensity and lifetime, continue to decrease as the chloride concentration increased. The steady-state intensities and intensity decays can be used to calculate the bimolecular quenching constant kq. This value can be interpreted by comparison with quenching of a fluorophore in solution without any steric barriers. […] This is the same structure of SPQ-C18 but with a shorter, three carbon propenyl chain. The unquenched lifetime (τ0) of P-MQB was 26 ns, and the Stern-Volmer constant K was 140 M^-1. […] Emission spectra and time-dependent decays were obtained (data not shown). Stern-Volmer plots were obtained in water and in a Stenfilcon A (AspireTM) contact lens by plotting the normalized intensities with respect to the added chloride concentrations.

[1] = Stenfilcon A (Aspire™) contact lens

unquenched lifetime (in lenses): ~18.5 ns
SMILES: CCCCCCCCCCCCCCCCCC[n+]1cccc2cc(OC)ccc21 [SPQ-C18, N-Octadecyl-6-methoxyquinolinium bromide]
reduction of quenching constant, in lens versus SPQ-C3 in buffer: 10 fold
k (bimolecular quenching constant) (Biofinity): 0.41×10^9 m-1 sec-1
quenching constant K from lifetime measurement (Biofinity): 8.12 M⁻¹
k (bimolecular quenching constant) (MyDay): 0.37×10^9 m-1 sec-1
quenching constant K from lifetime measurement (MyDay): 7.44 M⁻¹
bimolecular quenching constant [1]: 1e+09 M⁻¹ s⁻¹
decrease in the collision rate versus SPQ-C3 in water [1]: 5.4
quenching of emission intensities (chloride near 120 mM, Biofinity and MyDay): about 50%
